Each structure is given as a SMILES string.

One series deals with T1, β2-adrenergic receptor (Homo sapiens, UniProt P07550).
T1 construct: expressed in transfected cells; host or cells: CHO
Kind of series: Functional cellular cAMP (HTRF) assay, CHO cells expressing β2-ARs. The class given is cell-based. To be noted: relative to procaterol. The procedure: (§1) The potency and maximal effect of vibegron and mirabegron for β3-adrenergic receptors and the selectivity for each […] receptor were determined. Functional cellular assays for vibegron and mirabegron activity were performed using Chinese hamster ovary (CHO) cells expressing β1- or β2-ARs and human embryonic kidney (HEK) 293 cells expressing β3-ARs. Cells were incubated with vibegron, mirabegron, or the appropriate control (isoproterenol for β1 and β3, procaterol for β2). Responses were quantified using homogeneous time-resolved fluorescence of cyclic adenosine monophosphate. Half-maximal effective concentration (EC50) and maximum response (Emax) values were determined by nonlinear least-squares regression analysis.
A general note: In TR-FRET formats the signal depends on donor and acceptor labels being close together.

In series [1] the test system is mice with induced myocardial infarction. Description: Post-MI chronic heart failure in mice, invasive hemodynamics with isoproterenol. The class given is in vivo, mouse. To be noted: 4 weeks of treatment. The text has this:
(§2) Myocardial infarction was induced in 10-12 week C57B/6 wild-type mice and after 2 weeks echo cardiograms were used to assess the MI severity in each mouse. Mice were randomized for treatment based on similarity and severity of the induced infarct. The mice were started with either vibegron or vehicle (1-3 doses) administered by continuous infusion using 2 week minipumps (Azlet Corp.) that were filled with the appropriate dose and implanted subcutaneously on the back of each animal in the region of the scapula. The minipumps were replaced with new minipumps in the same location at the 2 week time point and dosed for 4 weeks in total. Cardiac function was assessed by echocardiography (Echo) at 0, 2, 4, and 6 weeks. Some mice were subjected to terminal catheterization to measure hemodynamic pressures and adrenergic responsiveness. At the end of the 4 week treatment period (i.e., 6 weeks after MI was induced), cardiac function was measured, mice were sacrificed for histology of the heart, and terminal blood was collected to confirm the serum concentration of vibegron.
(§3) • 1. Day 0 (after 1-2 weeks acclimation)—pre-surgery Echo • 2. Perform LAD Ligation (MI) or Sham procedure • 3. Day 14—Echo and randomly assign groups • 4. Day 14—begin administration of vehicle and drug for 4 weeks • 5. Day 28—Echo (operator blinded to groups)—change pumps for another 2 week dosing • 6. Day 42—Echo (operator blinded to groups) • 7. Day 42—Some were used for hemodynamics and ISO dose response and all animals sacrificed. Some were used for histology and some for RNA/Protein analysis. Blood was also collected at the time of sacrifice to determine serum concentrations.
Invasive Measurements: The hemodynamic measurements occurred at the end of the study as described in the protocols above. […] Hemodynamic measurements were collected and analyzed for cardiac function.
The maximum (dp/dt max) rate of pressure change during contraction and minimum (dp/dt min) rate of pressure change during relaxation of the left ventricle were measured with increasing doses of isoproterenol in combination with vibegron. […]

For series [2] the test system is unchanged. Description: Post-MI chronic heart failure in mice, heart histology (Mason's trichrome). To be noted: for Average % Infarcted Myocardium / Average Left Ventricle Lumen Area: Week 6. The class given is in vivo, mouse.
Text: as §2, §3
At the end of the study period, blood samples were processed for subsequent analysis of compound and decided biomarkers. At the end of the study, the heart was either preserved in formalin (for section, and staining) or snap frozen (for isolation of whole heart RNA, DNA and protein) as described above.
Histologies were obtained by sectioning the mouse hearts vertically in such a way that all four chambers were visible upon staining. The area of the left ventricle cavity was measured by staining with Mason's trichrome stain. The darker color indicates healthy myocardium and the lighter color indicates connective tissue, which is the largest component of infarcted myocardium.

A short description of series [3]: Plasma titer after 4 weeks of treatment in post-MI mice. The class given is in vivo, mouse. To be noted: after 4 weeks of treatment (week 6), FIG. 6.
Text: as §2
• 1. Day 0 (after 1-2 weeks acclimation)—pre-surgery Echo • 2. Perform LAD Ligation (MI) or Sham procedure • 3. Day 14—Echo and randomly assign groups • 4. Day 14—begin administration of vehicle and drug for 4 weeks • 5. Day 28—Echo (operator blinded to groups)—change pumps for another 2 week dosing • 6. […]

A further series deals with T2, β1-adrenergic receptor (Homo sapiens, UniProt P08588).
T2 construct: expressed in transfected cells; host or cells: CHO
T2 sequence (P08588 whole entry): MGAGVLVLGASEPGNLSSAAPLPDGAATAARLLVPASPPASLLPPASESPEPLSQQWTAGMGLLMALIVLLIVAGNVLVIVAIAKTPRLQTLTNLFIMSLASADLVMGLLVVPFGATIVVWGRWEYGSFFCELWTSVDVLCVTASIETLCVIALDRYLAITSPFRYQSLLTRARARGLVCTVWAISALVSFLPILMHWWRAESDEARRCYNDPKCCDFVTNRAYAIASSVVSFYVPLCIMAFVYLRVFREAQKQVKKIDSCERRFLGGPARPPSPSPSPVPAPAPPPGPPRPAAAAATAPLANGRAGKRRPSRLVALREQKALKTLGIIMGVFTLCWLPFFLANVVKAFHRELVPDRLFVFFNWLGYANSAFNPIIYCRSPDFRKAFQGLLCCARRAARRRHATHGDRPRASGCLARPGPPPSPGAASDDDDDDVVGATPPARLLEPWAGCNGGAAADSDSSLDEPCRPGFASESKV
Description: Functional cellular cAMP (HTRF) assay, CHO cells expressing β1-ARs. To be noted: relative to isoproterenol. The class given is cell-based. On the procedure: as §1

For series [4], the system named is β3-AR over β2-AR and β1-AR. To be noted: cell based in vitro assays; cited from earlier work.

T1 sequence (P07550 whole entry): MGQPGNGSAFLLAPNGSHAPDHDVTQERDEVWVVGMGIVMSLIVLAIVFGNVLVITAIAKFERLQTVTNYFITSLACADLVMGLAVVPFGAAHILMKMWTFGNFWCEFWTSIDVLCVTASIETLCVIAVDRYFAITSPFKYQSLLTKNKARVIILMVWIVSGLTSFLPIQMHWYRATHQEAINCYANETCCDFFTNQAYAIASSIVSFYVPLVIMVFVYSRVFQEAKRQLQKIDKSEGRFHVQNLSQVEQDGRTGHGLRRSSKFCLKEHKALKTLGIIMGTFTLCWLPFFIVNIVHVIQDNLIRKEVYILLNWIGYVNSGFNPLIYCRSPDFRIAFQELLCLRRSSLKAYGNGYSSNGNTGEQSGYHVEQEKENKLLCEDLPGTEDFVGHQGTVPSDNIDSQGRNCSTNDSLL

Regarding `O=C(Nc1ccc(C[C@@H]2CC[C@H]([C@H](O)c3ccccc3)N2)cc1)[C@@H]1CCc2nccc(=O)n21` [Vibegron, (6S)—N-[4-[[(2S,5R)-5-[(R)-hydroxy(phenyl)methyl]pyrrolidin-2-yl]methyl]phenyl]-4-oxo-7,8-dihydro-6H-pyrrolo[1,2-a]pyrimidine-6-carboxamide], the “β2-adrenergic activity (% Activity)” value on β2-adrenergic receptor worked out at 2%. Moreover, in series [1] (increasing doses of isoproterenol, FIG. 4A), the “Maximum rate of pressure change (dp/dt max) during left ventricle contraction” value was “increased”. The “Minimum rate of pressure change (dp/dt min) during left ventricle relaxation” value in series [1] (increasing doses of isoproterenol, FIG. 4B) was “decreased”. The “Change in heart rate with increasing doses of isoproterenol” value in series [1] (versus mice not receiving vibegron, FIG. 4C) was “higher increase in heart rate”. Also, the “Amount of healthy myocardium after infarction (trichrome stain)” value in series [2] (MI mice, 4 weeks of treatment, versus vehicle, FIGS. 5A-5F) is listed as “increases the amount of healthy myocardium after infarction”. Moreover, the “Average % Infarcted Myocardium” value in series [2] (MI mice, high dose (10 mg/kg)) is given as 7.68%; in series [2] (MI mice, low dose (1 mg/kg)) it was 21.79%; in series [2] (MI mice, medium dose (3 mg/kg)), 18.85%. The “Average Left Ventricle Lumen Area” value in series [2] (MI mice, high dose (10 mg/kg)) is recorded as 75,061 AU; in series [2] (MI mice, low dose (1 mg/kg)), 170,789 AU; in series [2] (MI mice, medium dose (3 mg/kg)), 72,474 AU; in series [2] (sham mice, high dose (10 mg/kg)), 46,167 AU. Further, the “Adverse effects in healthy hearts (LV lumen area, infarcted myocardium)” value in series [2] (sham mice, high dose) is given as “no adverse effects”. Moreover, the Vibegron plasma titer entry in series [3] is recorded as “consistent with the dosing”. Moreover, the “β1-adrenergic activity (% Activity)” value at β1-adrenergic receptor came to 0%. For the same compound, the “Selectivity for activation of β3-AR over β2-AR and β1-AR” value in series [4] is > 9,000 fold.

The values are drawn from patent US20260224577A1, “METHODS OF TREATING HEART FAILURE WITH VIBEGRON” (SUMITOMO PHARMA CO., LTD., priority 2021, published 2026).
